Consider six compounds from US10154973B2, “Quinone compounds for treating APE1 mediated diseases” (Indiana University Research and Technology Corporation, priority 2011, dated 2018).

Series [1] has as its system pGF-NFκB in Panc1 cells. Kind of series: NFκB luciferase reporter assay in Panc1 pancreatic cancer cells. The note with it: Homo sapiens, PANC-1; luciferase activity 40 hrs after treatment; stable pGF-NFκB; read-out: Panel IC50. Type of series: cell-based. The method, then:
(§1) Using lentiviral transcriptional reporter vectors, pGreenFire-NFkB, and pGreenFire-mCMV (negative control), from System Biosciences Inc. (Mountainview, Calif.), HEK293-T cells (Lonza, Inc. Allendale, N.J.) are transfected with the constructs and the media containing the viral supernatants is collected. To generate stably expressing reporter cell lines, cancer cell lines are infected with the viral supernatant and the cells are selected with puromycin ([…]) for 5 days. For the experiments, test compound is added and left on the cells before being assayed for luciferase activity. SKOV-3X, Panc1, and SF767 cells with the stable pGF-NFκB are treated with test compounds and assayed 40 hrs later for luciferase activity. Panc1 is a pancreatic cancer cell line; SF767 is the glioma cell line. IC50 values for test compounds are determined.

In series [2] the test system is Skov-3X. Kind of series: Growth inhibition of ovarian cancer cells, Skov-3X. It is filed as cell-based. The note with it: ovarian cancer cell line. The method, then: (§2) Test compounds are assayed for growth inhibition ability against two 2 ovarian cancer cell lines. IC50 values for test compounds are determined.
Series [3] relates to pGF-NFκB in SF767 cells. Kind of series: NFκB luciferase reporter assay in SF767 glioma cells. The note with it: SF767 glioma cell line; luciferase activity 40 hrs after treatment; stable pGF-NFκB. Type of series: cell-based. The method, then: as §1
In series [4] the test system is Hey-C2. Kind of series: Growth inhibition of ovarian cancer cells, Hey-C2. Type of series: cell-based. The note with it: ovarian cancer cell line. The method, then: as §2
The nature of series [5]: Pharmacokinetics in mice. The note with it: mouse, in vivo, approximate values. The method, then:
The pharmacokinetics of test compounds are evaluated in mice using conventional methods, using oral (25 mg/kg), intraperitoneal (25 mg/kg), and intravenous routes (5 mg/kg) of administration. The following approximate Cmax (ng/mL) values for test compounds are determined.

Series [6] addresses Ape1 (Homo sapiens, UniProt P27695). Kind of series: Redox EMSA assay. Type of series: biochemical. Conditions: electrophoresis, 0.02 mM DTT. The method, then: Conventional electrophoresis measuring Ape1 expression with 0.02 mM DTT is used to evaluate test compounds. […] Additional details are described in Fishel et al. Mol Cancer Ther. 2011 September; 10(9):1698-708 & Luo et al., Antioxid Redox Signal. 2008 November; 10(11):1853-67.

The subject of series [7] is PaCa-2 cells. Kind of series: Pancreatic cancer cell xenograft. It is filed as in vivo. Conditions: orally 25 mg/kg twice daily for 18 days; PaCa-2 s.c. in NOD/SCID mice; FIG. 1. The method, then: PaCa-2 cells (2.5×10^6) in 0.2 mL of DMEM media were implanted s.c. into the right flanks of NOD/SCID mice. Test compounds are dissolved in 4% CremophorEL:EtOH (1:1)/saline solution or methylcellulose (0.5%, Sigma). When tumor volumes are greater than about 100 mm^3, test compounds are administered, such as orally, twice daily, 8 hours apart, at 25 mg/kg for 10 to 18 days (5 days on 2 days off schedule). Tumors are measured biweekly and followed for approximately 6 weeks. Tumor volumes are monitored by caliper measurement [tumor volume=length×(perpendicular width)2×0.5] and the average tumor volume in mm^3 for each treatment group is plotted. Treatment corresponds to days 1 to 15. Average tumor volume±SE for the vehicle compared to test compounds (n=7) are analyzed by statistical analysis. Additional details are described in Fishel et al. Mol Cancer Ther. 2011 September; 10(9):1698-708.

Series [8] relates to NFkB. Kind of series: Ape1/Ref1 transcription factor activation (NFkB transactivation). Conditions: Hey-C2, SF767, Panc1, and Skov-3X cell lines. It is filed as cell-based. The source says: The DNA base excision-repair pathway is responsible for the repair of DNA damage caused by oxidation/alkylation and protects cells against the effects of endogenous and exogenous agents. Removal of the damaged base creates a baseless (AP) site. AP endonuclease1 (Ape1) acts on this site to continue the BER-pathway repair. Failure to repair baseless sites leads to DNA strand breaks and cytotoxicity. In addition to the repair role, Ape1 also functions as a major redox-signaling factor to reduce and activate transcription factors such as AP1, p53, HIF-1alpha, and others that control the expression of genes important for cell survival and cancer promotion and progression. Thus, the Ape1 protein interacts with proteins involved in DNA repair, growth-signaling pathways, and pathways involved in tumor promotion and progression. Test compounds are evaluated for activity in decreasing transactivation of transcription factors.

Where two headings read alike, the source gives them in different places.

Chain of Ape1 (P27695 whole entry): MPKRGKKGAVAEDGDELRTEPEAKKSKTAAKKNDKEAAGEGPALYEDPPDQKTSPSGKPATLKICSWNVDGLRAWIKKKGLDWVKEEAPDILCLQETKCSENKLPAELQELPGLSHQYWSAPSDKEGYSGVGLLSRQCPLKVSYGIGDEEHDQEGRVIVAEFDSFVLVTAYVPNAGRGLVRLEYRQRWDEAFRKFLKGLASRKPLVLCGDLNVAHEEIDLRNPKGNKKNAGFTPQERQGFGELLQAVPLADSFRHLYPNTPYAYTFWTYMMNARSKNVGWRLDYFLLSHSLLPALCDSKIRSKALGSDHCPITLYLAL

In the case of `COC1=C(C=C(C)C(=O)N(C)C)C(=O)c2ccccc2C1=O` [Example 5a], the IC50 in series [1] is 5 µM; in series [2], 17 µM; in series [3], 10 µM; in series [4] it was 18 µM. In addition, the Cmax is 200 ng/mL in series [5] (intravenous 5 mg/kg, read-out: IV Cmax); 2000 ng/mL in series [5] (ip, intraperitoneal 25 mg/kg, read-out: IP Cmax); 200 ng/mL in series [5] (oral 25 mg/kg, read-out: Oral Cmax).
Turning to `CCCC(=CC1=C(OC)C(=O)c2ccccc2C1=O)C(=O)N(CC)CC` [Example 5c], the IC50 in series [1] stood at 8 µM; in series [2] it was 30 µM; in series [3], 18 µM; in series [4] it was 25 µM.
In the case of `CCCC(=CC1=C(OC)C(=O)c2ccccc2C1=O)C(=O)NOC` [Example 5d], the IC50 stood at 7 µM in series [1], 10 µM in series [2], 10 µM in series [3] and 11 µM in series [4].
For `CCCCCCCCCC(=CC1=C(C)C(=O)C(OC)=C(OC)C1=O)C(=O)NOC` [Example 6a], the “concentration showing significant signal reduction” value in series [6] worked out at 20 µM. The “Ape1 expression knock-down compared to E3330” value in series [6] (in vitro) is given as “improved expression knock-down compared to E3330”. Also, the IC50 in series [1] is 9 µM; in series [2], 38 µM; in series [3], 12 µM; in series [4], 28 µM. The “tumor volume compared to untreated control” value in series [7] is “significant reduction in tumor volume”. The “% transactivation of NFkB” value in series [8] is recorded as “significant decrease”.
Turning to `CCCCCCCCCC(=CC1=C(C)C(=O)C(OC)=C(OC)C1=O)C(=O)N(C)OC` [Example 6b], the 50% inhibitory concentration (IC50) in series [1] was determined as 10 µM; in series [2], 32 µM; in series [3], 18 µM; in series [4], 22 µM.
In the case of `CCCCCCCCC/C(=C\C1=C(C)C(=O)C(OC)=C(OC)C1=O)C(=O)O` [Example E3330, reference compound], the “concentration showing significant signal reduction” value in series [6] was determined as 30 µM. Also, the half-maximal inhibitory concentration (IC50) in series [1] is 52 µM; in series [2], around 100 µM; in series [3], 80 µM; in series [4] it was around 100 µM.
